According to patent US11690854B2, “Methods of treating heavy menstrual bleeding” (priority 2018, dated 2023):
Marks after values point to notes of the source that are not given here.

Legend:
[1] = test system: premenopausal women with endometriosis with associated pain; assay: Phase 3 Study EM-I (and extension EM-III); format: in vivo, human; conditions: for Proportion of responders for Dyspareunia (Daily Endometriosis Pain Impact Scale) / Proportion of responders for dysmenorrhea (Daily Endometriosis Pain Impact Scale) / Proportion of responders for Non-Menstrual Pelvic Pain (Daily Endometriosis Pain Impact Scale): EM-I
From the text: (§1) Each placebo-controlled study assessed the reduction in endometriosis-associated pain over 6 months of treatment. More than 75 percent of women who completed Study EM-I and EM-II enrolled in the extension studies for an additional 6 month treatment period. Subjects were followed for up to 12 months post-treatment. The co-primary efficacy endpoints were the proportion of responders for dysmenorrhea and pelvic pain not related to menses (also known as non-menstrual pelvic pain [NMPP]) at Month 3 compared to placebo. The primary analysis independently evaluated these endpoints using a daily diary that asked patients to assess their pain and its impact on their daily activities, over the previous 24 hours. […] Women were defined as responders if they experienced clinically meaningful reduction in dysmenorrhea and/or NMPP with no increased analgesic use for endometriosis associated pain. Dyspareunia was evaluated as a secondary endpoint using the Daily Endometriosis Pain Impact Scale. Endometrial biopsies were performed in subjects in Study EM-I and its extension at Month 6 and Month 12.

[2] = Pharmacokinetics in specific populations (renal, hepatic impairment); format: in vivo, human; conditions: for Elagolix exposures in severe hepatic impairment relative to normal hepatic function: severe hepatic impairment (Child-Pugh C)
From the text: The mean exposures are similar for women with moderate to severe or end stage renal disease (including women on dialysis) compared to women with normal renal function.
Elagolix exposures (Cmax and AUC) are similar between women with normal hepatic function and women with mild hepatic impairment. Elagolix exposures in women with moderate and severe hepatic impairment are approximately 3-fold and 7-fold, respectively, of exposures from women with normal hepatic function.

[3] = Mutagenicity studies using in vitro and in vivo test systems
From the text: Mutagenicity studies have been performed with elagolix using in vitro and in vivo test systems.

[4] = test system: premenopausal women with endometriosis with associated pain; assay: Phase 3 Study EM-II (and extension EM-IV); format: in vivo, human
From the text: as §1, with “Scale.” for “Scale. Endometrial biopsies were performed in subjects in Study EM-I and its extension at Month 6 and Month 12.”

[5] = test system: premenopausal women with uterine fibroids; assay: Phase 2a trial of Elagolix with or without add-back in uterine fibroids with heavy menstrual bleeding; format: in vivo, human; conditions: for Percent of subjects achieving composite bleeding endpoint (MBL <80 mL at Final Month and ≥50% reduction in MBL from baseline, AH method): last 28 days of treatment, placebo 30%; for Percent of subjects with ≥25% reduction in uterine volume: placebo 9%; for Percent of subjects with ≥25% reduction in fibroid volume: placebo 29%; for Average Total Blood Loss Measured by AH Method During Treatment: 3 months of treatment, placebo 569.7; for Average Total MBL in Days 66-95 Post-Baseline: placebo 190.3; for Average total MBL from days 6-35 post-baseline: placebo 190.5; for Average Total MBL from Days 36-65 Post-Baseline: placebo 194.6
Experimental: Methods for analyzing menstrual blood loss are known in the art and include, for example, the alkaline hematin method. The alkaline hematin method is based on the quantitation of menstrual blood collected on sanitary products (Hallberg L., Nilsoon L., Determination of Menstrual Blood Loss. Scand. J. Clin. Lab. Invest., 1964; 16:244-248). The method uses a strong alkaline solution to chemically convert the heme from bloodstained sanitary products to alkaline hematin, which is measured colorimetrically. When compared to a subject's serum hemoglobin (Hgb), the volume of blood loss in the menstrual products can be determined. […] The study involved the following six (6) cohorts: Cohort 1: […] Cohort 2: Elagolix 300 mg BID or placebo. Cohort 3: […] Cohort 4: […] Cohort 6: […] There are a number of efficacy endpoints, but a composite endpoint consisting of two bleeding assessments was used to assess one measure of efficacy. […] Eighty-five percent (85%), 97%, and 30% of subjects achieved the composite bleeding assessment endpoint in the 200 mg BID, 300 mg BID, and placebo groups, respectively (P<0.05 for 200 mg BID versus placebo in cohort 1, and 300 mg BID versus placebo in cohort 2). […] Quality of life (QoL) measures were also determined using the “Responsiveness of the uterine fibroid symptom and health-related quality of life questionnaire” (UFS-QOL) (Harding, Gale, Coyne Karin S., Thompson Christine L., Spies James B, United BioSource Corporation, 7101 Wisconsin Avenue, Suite 600, Bethesda, Md., 20814, USA, Health and Quality Life Outcomes, 2008, 6, page 99).

[6] = 100 BID, screening 276.4 mL per cycle
[7] = 200 BID, screening 287.4 mL per cycle
[8] = 300 BID, screening 224.8 mL per cycle
[9] = 400 QD, screening 220.3 mL per cycle
[10] = 600 QD, screening 228.7 mL per cycle

## COc1cccc(-c2c(C)n(Cc3c(F)cccc3C(F)(F)F)c(=O)n(C[C@H](NCCCC(=O)O)c3ccccc3)c2=O)c1F [Elagolix, 4-((R)-2-[5-(2-fluoro-3-methoxy-phenyl)-3-(2-fluoro-6-trifluoromethyl-benzyl)-4-methyl-2,6-dioxo-3,6-dihydro-2H-pyrimidin-1-yl]-1-phenyl-ethylamino)-butyric acid]
[1]; 150 mg QD, Month 3, n/N 74/187, placebo 31.9
  Proportion of responders for Dyspareunia (Daily Endometriosis Pain Impact Scale): 39.6%
[1]; 150 mg QD, Month 3, n/N 115/248, placebo 19.6
  Proportion of responders for dysmenorrhea (Daily Endometriosis Pain Impact Scale): 46.4*** %
[1]; 150 mg QD, Month 3, n/N 125/248, placebo 36.5
  Proportion of responders for Non-Menstrual Pelvic Pain (Daily Endometriosis Pain Impact Scale): 50.4*** %
[1]; 150 mg QD, Month 6, n/N 74/187, placebo 33.3
  Proportion of responders for Dyspareunia (Daily Endometriosis Pain Impact Scale): 39.6%
[1]; 150 mg QD, Month 6, n/N 104/247, placebo 23.1
  Proportion of responders for dysmenorrhea (Daily Endometriosis Pain Impact Scale): 42.1*** %
[1]; 150 mg QD, Month 6, n/N 113/247, placebo 34.9
  Proportion of responders for Non-Menstrual Pelvic Pain (Daily Endometriosis Pain Impact Scale): 45.7** %
[1]; 200 mg BID, Month 3, n/N 81/172, placebo 31.9
  Proportion of responders for Dyspareunia (Daily Endometriosis Pain Impact Scale): 47.1*** %
[1]; 200 mg BID, Month 3, n/N 133/244, placebo 36.5
  Proportion of responders for Non-Menstrual Pelvic Pain (Daily Endometriosis Pain Impact Scale): 54.5*** %
[1]; 200 mg BID, Month 3, n/N 185/244, placebo 19.6
  Proportion of responders for dysmenorrhea (Daily Endometriosis Pain Impact Scale): 75.8*** %
[1]; 200 mg BID, Month 6, n/N 81/161, placebo 33.3
  Proportion of responders for Dyspareunia (Daily Endometriosis Pain Impact Scale): 50.3*** %
[1]; 200 mg BID, Month 6, n/N 151/243, placebo 34.9
  Proportion of responders for Non-Menstrual Pelvic Pain (Daily Endometriosis Pain Impact Scale): 62.1*** %
[1]; 200 mg BID, Month 6, n/N 183/243, placebo 23.1
  Proportion of responders for dysmenorrhea (Daily Endometriosis Pain Impact Scale): 75.3*** %
[1]; Study EM-I and its extension, Month 6 and Month 12
  Endometrial biopsy findings: no abnormal biopsy findings post-baseline
[2]; moderate hepatic impairment (Child-Pugh B)
  Elagolix exposures in moderate hepatic impairment relative to normal hepatic function: approximately 3 fold
[2]; moderate to severe or end stage renal disease vs normal renal function
  Elagolix exposures (Cmax and AUC) in renal impairment: not altered by renal impairment
[2]
  Elagolix exposures in severe hepatic impairment relative to normal hepatic function: ~7 fold
[2]; listed as elagolix
  Elagolix exposures in severe hepatic impairment relative to normal hepatic function: approximately 7 fold
[2]; vs women with normal hepatic function
  Elagolix exposures (Cmax and AUC) in mild hepatic impairment: similar
[3]
  Mutagenic or clastogenic potential: no evidence of a mutagenic or clastogenic potential
[4]; 150 mg QD, Month 3, n/N 70/159, placebo 39.5
  Proportion of responders for Dyspareunia (Daily Endometriosis Pain Impact Scale): 44.0%
[4]; 150 mg QD, Month 3, n/N 96/221, placebo 22.7
  Proportion of responders for dysmenorrhea (Daily Endometriosis Pain Impact Scale): 43.4%***
[4]; 150 mg QD, Month 3, n/N 110/221, placebo 36.5
  Proportion of responders for Non-Menstrual Pelvic Pain (Daily Endometriosis Pain Impact Scale): 49.8** %
[4]; 150 mg QD, Month 6, n/N 65/163, placebo 39.4
  Proportion of responders for Dyspareunia (Daily Endometriosis Pain Impact Scale): 39.9%
[4]; 150 mg QD, Month 6, n/N 102/221, placebo 25.4
  Proportion of responders for dysmenorrhea (Daily Endometriosis Pain Impact Scale): 46.2%***
[4]; 150 mg QD, Month 6, n/N 114/221, placebo 40.6
  Proportion of responders for Non-Menstrual Pelvic Pain (Daily Endometriosis Pain Impact Scale): 51.6%**
[4]; 200 mg BID, Month 3, n/N 87/162, placebo 39.5
  Proportion of responders for Dyspareunia (Daily Endometriosis Pain Impact Scale): 53.7** %
[4]; 200 mg BID, Month 3, n/N 130/225, placebo 36.5
  Proportion of responders for Non-Menstrual Pelvic Pain (Daily Endometriosis Pain Impact Scale): 57.8*** %
[4]; 200 mg BID, Month 3, n/N 163/225, placebo 22.7
  Proportion of responders for dysmenorrhea (Daily Endometriosis Pain Impact Scale): 72.4*** %
[4]; 200 mg BID, Month 6, n/N 92/165, placebo 39.4
  Proportion of responders for Dyspareunia (Daily Endometriosis Pain Impact Scale): 55.8*** %
[4]; 200 mg BID, Month 6, n/N 140/225, placebo 40.6
  Proportion of responders for Non-Menstrual Pelvic Pain (Daily Endometriosis Pain Impact Scale): 62.2*** %
[4]; 200 mg BID, Month 6, n/N 173/225, placebo 25.4
  Proportion of responders for dysmenorrhea (Daily Endometriosis Pain Impact Scale): 76.9*** %
[5]; 200 mg BID
  Percent of subjects achieving composite bleeding endpoint (MBL <80 mL at Final Month and ≥50% reduction in MBL from baseline, AH method): 85%
  Percent of subjects with ≥25% reduction in uterine volume: 50%
  Percent of subjects with ≥25% reduction in fibroid volume: 63%
[5]; 300 mg BID without add-back therapy
  Inhibition of bleeding: maximum inhibition of bleeding (most of women achieved amenorrhea)
[5]; 300 mg BID, 400 mg QD and 600 mg QD without add-back
  Women who reported an adverse event of hot flash: 50-62.5%
[5]; 300 mg BID, compared with other Elagolix treatments
  Effect on uterine and fibroid volumes (FIG. 4): showed the strongest effects
[5]; 300 mg BID
  Percent of subjects achieving composite bleeding endpoint (MBL <80 mL at Final Month and ≥50% reduction in MBL from baseline, AH method): 97%
  Percent of subjects with ≥25% reduction in uterine volume: 68%
  Percent of subjects with ≥25% reduction in fibroid volume: 55%
[5]; 400 mg QD and 600 mg QD
  Inhibition of bleeding compared with 300 mg BID: slightly less effective
[5]; 100 BID, N = 26
  Average Total Blood Loss Measured by AH Method During Treatment: 198.4 mL
[5]; [6]
  Average Total MBL in Days 66-95 Post-Baseline: 65.4 mL
  Average total MBL from days 6-35 post-baseline: 33.2 mL
  Average Total MBL from Days 36-65 Post-Baseline: 100.9 mL
[5]; 200 BID, N = 28
  Average Total Blood Loss Measured by AH Method During Treatment: 47.0 mL
[5]; [7]
  Average Total MBL in Days 66-95 Post-Baseline: 41.5 mL
  Average total MBL from days 6-35 post-baseline: 0 mL
  Average Total MBL from Days 36-65 Post-Baseline: 5.5 mL
[5]; 300 BID, N = 26
  Average Total Blood Loss Measured by AH Method During Treatment: 4.3 mL
[5]; [8]
  Average Total MBL in Days 66-95 Post-Baseline: 4.3 mL
  Average total MBL from days 6-35 post-baseline: 0 mL
  Average Total MBL from Days 36-65 Post-Baseline: 0 mL
[5]; 400 QD, N = 26
  Average Total Blood Loss Measured by AH Method During Treatment: 38.4 mL
[5]; [9]
  Average Total MBL in Days 66-95 Post-Baseline: 21.6 mL
  Average total MBL from days 6-35 post-baseline: 14.9 mL
  Average Total MBL from Days 36-65 Post-Baseline: 12.4 mL
[5]; 600 QD, N = 24
  Average Total Blood Loss Measured by AH Method During Treatment: 69.6 mL
[5]; [10]
  Average Total MBL in Days 66-95 Post-Baseline: 14.9 mL
  Average total MBL from days 6-35 post-baseline: 27.6 mL
  Average Total MBL from Days 36-65 Post-Baseline: 35.0 mL
